Values of other authors as cited in patent US11389412B2, “Curcuminoid chlorophyllin (CHL) compositions and methods of preparation and use” (InovoBiologic Inc., priority 2017, dated 2022).

Conditions: composition of curcuminoid mixture and essential oil arturmerone, U.S. Pat. No. 7,883,728

COc1cc(C=CC(=O)CC(=O)C=Cc2ccc(O)c(OC)c2)ccc1O [curcumin, 1,7bis (4-hydroxy-3-methoxy phenyl)-1,6 heptadiene-3,5-dione]
bioavailability of curcumin in human, maximum: about 93 ng/g
